Article PMC3632207 (Journal of medicinal chemistry, 2013)

Biological target: rat nNOS (Rattus norvegicus, UniProt P29476)
Experiment: NOS inhibition, hemoglobin capture assay
Type: biochemical
Settings: data not shown

- Competition with H4B: not to be competitive with H4B
Structure (SMILES): Cc1cc(N)nc(CCc2cc(CCCN)cc(CCc3cc(C)cc(N)n3)c2)c1 [Compound 4, 6,6'-((5-(3-Aminopropyl)-1,3-phenylene)bis(ethane-2,1-diyl))bis(4-methylpyridin-2-amine)]
